Reference: PubChem BioAssay AID1963869 (Molecular Pharmacology Branch, DTP, NCI, 2024)

Tested on: KRAS patient-derived spheroids with HUVEC/MSC, viability
Assay: Anticancer human tumor 323965-272-R-J2-PDC patient-derived pancreatic carcinoma cell line growth inhibition [KRAS2]
Details: for viability, T/C: stronger effect = lower value
Method in brief: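 KRAS-mutant tumor cells were grown as spheroids with HUVEC endothelial cells and human MSCs as stroma. Targeted agents were tested alone and with KRAS pathway inhibitors. Doses started at or near clinical Cmax, or 10 microM, descending half-log.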

[1] = curve of first compound, second compound 0.1 µM
[2] = curve of first compound, second compound 0.316 µM
[3] = curve of first compound, second compound 1 µM
[4] = curve of first compound, second compound 3.16 µM
[5] = curve of first compound, second compound 10 µM
[6] = second compound 0.1 µM, first compound 0.0316 µM
[7] = second compound 0.1 µM, first compound 0.1 µM
[8] = second compound 0.1 µM, first compound 0.316 µM
[9] = second compound 0.1 µM, first compound 1 µM
[10] = second compound 0.1 µM, first compound 3.16 µM
[11] = second compound 0.1 µM, first compound 10 µM
[12] = second compound 0.316 µM, first compound 0.0316 µM
[13] = second compound 0.316 µM, first compound 0.1 µM
[14] = second compound 0.316 µM, first compound 0.316 µM
[15] = second compound 0.316 µM, first compound 1 µM
[16] = second compound 0.316 µM, first compound 3.16 µM
[17] = second compound 0.316 µM, first compound 10 µM
[18] = second compound 1 µM, first compound 0.0316 µM
[19] = second compound 1 µM, first compound 0.1 µM
[20] = second compound 1 µM, first compound 0.316 µM
[21] = second compound 1 µM, first compound 1 µM
[22] = second compound 1 µM, first compound 3.16 µM
[23] = second compound 1 µM, first compound 10 µM
[24] = second compound 3.16 µM, first compound 0.0316 µM
[25] = second compound 3.16 µM, first compound 0.1 µM
[26] = second compound 3.16 µM, first compound 0.316 µM
[27] = second compound 3.16 µM, first compound 1 µM
[28] = second compound 3.16 µM, first compound 3.16 µM
[29] = second compound 3.16 µM, first compound 10 µM
[30] = second compound 10 µM, first compound 0.0316 µM
[31] = second compound 10 µM, first compound 0.1 µM
[32] = second compound 10 µM, first compound 0.316 µM
[33] = second compound 10 µM, first compound 1 µM
[34] = second compound 10 µM, first compound 3.16 µM
[35] = second compound 10 µM, first compound 10 µM
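Also: spheroids exposed to agents for 7 days.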
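For viability, T/C in this document: 100% = DMSO vehicle control viability.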

SMILES: COC(=O)c1ccc2c(C(=Nc3ccc(N(C)C(=O)CN4CCN(C)CC4)cc3)c3ccccc3)c(O)[nH]c2c1 + C=CC(=O)N1CCN(c2nc(=O)n(-c3c(C)ccnc3C(C)C)c3nc(-c4c(O)cccc4F)c(F)cc23)C(C)C1
- IC50 [1]: 1160 nM
- IC50 [2]: 536 nM
- IC50 [3]: 243 nM
- IC50 [4]: 196 nM
- IC50 [5]: < 31.6 nM
- viability, T/C [6]: 53.3%
- viability, T/C [7]: 55.6%
- viability, T/C [8]: 53.7%
- viability, T/C [9]: 50.7%
- viability, T/C [10]: 42.6%
- viability, T/C [11]: 19%
- viability, T/C [12]: 56%
- viability, T/C [13]: 52.4%
- viability, T/C [14]: 52.6%
- viability, T/C [15]: 46.8%
- viability, T/C [16]: 28.4%
- viability, T/C [17]: 16.6%
- viability, T/C [18]: 57.9%
- viability, T/C [19]: 57.6%
- viability, T/C [20]: 48%
- viability, T/C [21]: 28.2%
- viability, T/C [22]: 21.4%
- viability, T/C [23]: 16.8%
- viability, T/C [24]: 58%
- viability, T/C [25]: 56.6%
- viability, T/C [26]: 46.4%
- viability, T/C [27]: 27.9%
- viability, T/C [28]: 22.1%
- viability, T/C [29]: 13.8%
- viability, T/C [30]: 43.1%
- viability, T/C [31]: 32.9%
- viability, T/C [32]: 29.6%
- viability, T/C [33]: 18.8%
- viability, T/C [34]: 17.8%
- viability, T/C [35]: 12.5%

SMILES: CC(C)NCC(C(=O)N1CCN(c2ncnc3c2C(C)CC3O)CC1)c1ccc(Cl)cc1 (stereo unspecified) + COc1cc2nc(C)nc(NC(C)c3cc(N)cc(C(F)(F)F)c3)c2cc1OC1CCOC1
- IC50 [1]: 708 nM
- IC50 [2]: 541 nM
- IC50 [3]: 207 nM
- IC50 [4]: 123 nM
- IC50 [5]: 200 nM
- viability, T/C [6]: 84.9%
- viability, T/C [7]: 76%
- viability, T/C [8]: 59.7%
- viability, T/C [9]: 45.4%
- viability, T/C [10]: 37.2%
- viability, T/C [11]: 31.3%
- viability, T/C [12]: 72.1%
- viability, T/C [13]: 71.1%
- viability, T/C [14]: 56.2%
- viability, T/C [15]: 42.2%
- viability, T/C [16]: 28%
- viability, T/C [17]: 24.5%
- viability, T/C [18]: 72.3%
- viability, T/C [19]: 67.3%
- viability, T/C [20]: 39.5%
- viability, T/C [21]: 30.1%
- viability, T/C [22]: 27.8%
- viability, T/C [23]: 22.6%
- viability, T/C [24]: 61.4%
- viability, T/C [25]: 53%
- viability, T/C [26]: 38.2%
- viability, T/C [27]: 28.6%
- viability, T/C [28]: 24.8%
- viability, T/C [29]: 21.8%
- viability, T/C [30]: 57%
- viability, T/C [31]: 68.9%
- viability, T/C [32]: 41.4%
- viability, T/C [33]: 39%
- viability, T/C [34]: 28.4%
- viability, T/C [35]: 26.3%

SMILES: CC(=O)Nc1cccc(-n2c(=O)n(C3CC3)c(=O)c3c(Nc4ccc(I)cc4F)n(C)c(=O)c(C)c32)c1 + CNCc1ccccc1-c1csc(C(C)Nc2nc(C)nc3cc(OC)c(OC)cc23)c1
- IC50 [1]: 3.71 nM
- IC50 [2]: 2.91 nM
- IC50 [3]: 4.97 nM
- IC50 [4]: 8.68 nM
- IC50 [5]: < 0.1 nM
- viability, T/C (second compound 0.1 µM, first compound 0.0001 µM): 88%
- viability, T/C (second compound 0.1 µM, first compound 0.000316 µM): 83.9%
- viability, T/C (second compound 0.1 µM, first compound 0.001 µM): 60.7%
- viability, T/C (second compound 0.1 µM, first compound 0.00316 µM): 52.4%
- viability, T/C (second compound 0.1 µM, first compound 0.01 µM): 41.2%
- viability, T/C [6]: 27.7%
- viability, T/C (second compound 0.316 µM, first compound 0.0001 µM): 85.3%
- viability, T/C (second compound 0.316 µM, first compound 0.000316 µM): 68.7%
- viability, T/C (second compound 0.316 µM, first compound 0.001 µM): 62.7%
- viability, T/C (second compound 0.316 µM, first compound 0.00316 µM): 49%
- viability, T/C (second compound 0.316 µM, first compound 0.01 µM): 38.7%
- viability, T/C [12]: 24.8%
- viability, T/C (second compound 1 µM, first compound 0.0001 µM): 89.8%
- viability, T/C (second compound 1 µM, first compound 0.000316 µM): 81.6%
- viability, T/C (second compound 1 µM, first compound 0.001 µM): 67.7%
- viability, T/C (second compound 1 µM, first compound 0.00316 µM): 55.5%
- viability, T/C (second compound 1 µM, first compound 0.01 µM): 44%
- viability, T/C [18]: 21.3%
- viability, T/C (second compound 3.16 µM, first compound 0.0001 µM): 95.6%
- viability, T/C (second compound 3.16 µM, first compound 0.000316 µM): 88.4%
- viability, T/C (second compound 3.16 µM, first compound 0.001 µM): 77.6%
- viability, T/C (second compound 3.16 µM, first compound 0.00316 µM): 64.3%
- viability, T/C (second compound 3.16 µM, first compound 0.01 µM): 48.4%
- viability, T/C [24]: 28.8%
- viability, T/C (second compound 10 µM, first compound 0.0001 µM): 7.63%
- viability, T/C (second compound 10 µM, first compound 0.000316 µM): 0.79%
- viability, T/C (second compound 10 µM, first compound 0.001 µM): 6.13%
- viability, T/C (second compound 10 µM, first compound 0.00316 µM): 0.2%
- viability, T/C (second compound 10 µM, first compound 0.01 µM): 0.19%
- viability, T/C [30]: 1.14%

SMILES: CCN1CCN(Cc2ccc(Nc3ncc(F)c(-c4cc(F)c5nc(C)n(C(C)C)c5c4)n3)nc2)CC1
- viability, T/C (compound 0.00316 µM): 93.4% [middle of 5 runs]
- viability, T/C (compound 0.0316 µM): 76.6% [middle of 5 runs]
- viability, T/C (compound 0.1 µM): 61% [middle of 5 runs]
- viability, T/C (compound 0.316 µM): 62.1% [middle of 5 runs]
- viability, T/C (compound 1 µM): 62.6% [middle of 5 runs]
- IC50 (curve of compound): > 1000 nM

SMILES: COc1cc(Nc2ncc3c(n2)-c2ccc(Cl)cc2C(c2c(F)cccc2OC)=NC3)ccc1C(=O)O + CC1OCC2(CCN(c3cnc(Sc4ccnc(N)c4Cl)c(N)n3)CC2)C1N
- IC50 [1]: 89.9 nM
- IC50 [2]: < 31.6 nM
- IC50 [3]: < 31.6 nM
- IC50 [4]: < 31.6 nM
- IC50 [5]: < 31.6 nM
- viability, T/C [6]: 79.5%
- viability, T/C [7]: 47.3%
- viability, T/C [8]: 33.8%
- viability, T/C [9]: 44.3%
- viability, T/C [10]: 50.6%
- viability, T/C [11]: 56.2%
- viability, T/C [12]: 57.2%
- viability, T/C [13]: 39.9%
- viability, T/C [14]: 30.8%
- viability, T/C [15]: 32.6%
- viability, T/C [16]: 39.1%
- viability, T/C [17]: 43.8%
- viability, T/C [18]: 44.9%
- viability, T/C [19]: 26.6%
- viability, T/C [20]: 23.4%
- viability, T/C [21]: 26.6%
- viability, T/C [22]: 30.4%
- viability, T/C [23]: 33.7%
- viability, T/C [24]: 37.2%
- viability, T/C [25]: 22.2%
- viability, T/C [26]: 17.7%
- viability, T/C [27]: 23%
- viability, T/C [28]: 24.1%
- viability, T/C [29]: 28.3%
- viability, T/C [30]: 29.9%
- viability, T/C [31]: 19.3%
- viability, T/C [32]: 17.4%
- viability, T/C [33]: 20.3%
- viability, T/C [34]: 20.9%
- viability, T/C [35]: 23.3%

SMILES: O=C(c1cc(Cc2n[nH]c(=O)c3ccccc23)ccc1F)N1CCN(C(=O)C2CC2)CC1 + C=CC(=O)N1CCN(c2nc(OCC3CCCN3C)nc3c2CCN(c2cccc4cccc(C)c24)C3)CC1CC#N
- IC50 (curve of first compound, second compound 0.0316 µM): 8150 nM
- IC50 [1]: > 10000 nM
- IC50 [2]: 4290 nM
- IC50 [3]: 6240 nM
- IC50 [4]: < 31.6 nM
- viability, T/C (second compound 0.0316 µM, first compound 0.0316 µM): 79.1%
- viability, T/C (second compound 0.0316 µM, first compound 0.1 µM): 77.5%
- viability, T/C (second compound 0.0316 µM, first compound 0.316 µM): 76.1%
- viability, T/C (second compound 0.0316 µM, first compound 1 µM): 71.6%
- viability, T/C (second compound 0.0316 µM, first compound 3.16 µM): 74.3%
- viability, T/C (second compound 0.0316 µM, first compound 10 µM): 44.9%
- viability, T/C [6]: 61.4%
- viability, T/C [7]: 64.6%
- viability, T/C [8]: 61.8%
- viability, T/C [9]: 60.4%
- viability, T/C [10]: 57.5%
- viability, T/C [11]: 48.5%
- viability, T/C [12]: 57.8%
- viability, T/C [13]: 60.1%
- viability, T/C [14]: 55.4%
- viability, T/C [15]: 58%
- viability, T/C [16]: 51.8%
- viability, T/C [17]: 43.1%
- viability, T/C [18]: 61.6%
- viability, T/C [19]: 63.5%
- viability, T/C [20]: 63.3%
- viability, T/C [21]: 59.7%
- viability, T/C [22]: 50.8%
- viability, T/C [23]: 48.3%
- viability, T/C [24]: 33.7%
- viability, T/C [25]: 27.4%
- viability, T/C [26]: 25.1%
- viability, T/C [27]: 31.8%
- viability, T/C [28]: 34.7%
- viability, T/C [29]: 25.1%
